US9969744B2, “Compounds for use in cognition improvement” (FUNDACIÓN PARA LA INVESTIGACIÓN MÉDICA APLICADA, priority 2014, dated 2018)

Experiments:
PDE5A1 = biological target: T1, PDE5A1 (Homo sapiens, UniProt O76074); assay: PDE enzyme activity assay (HTRF cGMP), PDE5A; format: biochemical; conditions: recombinant enzyme; read-out: PDE5A1 inhibition (IC50)
T1 construct: they are full-length with N-terminal GST tag; GST (N); purchased BPS Biosciences 60050; host or cells: baculovirus infected Sf9 cells

[1] = test system: acetylated histone 3 at Lys9 (AcH3K9); assay: HDAC activity using SHSY-5Y cell line (Western blot, histone 3 acetylation); format: cell-based, human; design: key: basal x1 means no increment (+); basal x1.4≤(++)<basal x2; basal x2≤(+++)<basal x3; basal x3≤(++++); N.E. means No Effect; conditions: SHSY-5Y cells, 24 hours
Description: HDAC inhibition leads to the corresponding functional response, increase in AcH3 level. Therefore, the cellular assay to conclude HDAC activity was assessed by Western blot analysis using specific antibodies against acetylated histone 3 at Lys9 (AcH3K9). Cell cultures were treated at 100 nM, 500 nM, 1 μM and/or 5 μM with compounds of the invention or known PDE inhibitors during 24 hours and, Table 1 (below) describes the functional activity: histone 3 acetylation level (AcH3) vs basal (no treatment).
A human neuroblastoma cell line (SHSY-5Y) was used. Cell line was obtained from ATCC (CRL-2266) and cultured in 35 mm plates (Becton Dickinson, NJ).
The cells were grown to 90% confluence at 37° C. in an atmosphere of 5% CO2 and in Dulbecco's modified Eagle's medium supplemented with Glutamax (Gibco, Invitrogen, CA), 100 units/ml penicillin/streptomycin, 1×MEM nonessential amino acids and 10% fetal bovine serum (Gibco, Invitrogen, CA).
Cells were collected and sonicated in a buffer containing a cold lysis buffer with protease inhibitors (0.2 M NaCl, 0.1 M HEPES (4-(2-hydroxyethyl)-1-piperazineethanesulfonic acid), 10% glycerol, 200 mM NaF, 2 mM Na4P2O7, 5 mM EDTA (ethylenediaminetetraacetic acid), 1 mM EGTA (ethylene glycol tetraacetic acid), 2 mM DTT (dithiothreitol), 0.5 mM PMSF (phenylmethylsulfonyl fluoride), 1 mM Na3VO4 and Complete Protease Inhibitor Cocktail, Roche Diagnostics), centrifuged at 14,000×g 4° C. for 20 min and the supernatant was aliquoted and stored at −80° C. Total protein concentrations were determined using the BioRad Bradford protein assay (BioRad Laboratories).
Protein samples were mixed with Laemmli sample buffer, resolved onto Sodium Dodecyl Sulfate (SDS)-polyacrylamide gels and transferred to nitrocellulose membrane. The membranes were blocked with 5% milk, 0.05% Tween-20 in PBS (Phosphate-Buffered Saline) or TBS (Tris-Buffered Saline) followed by overnight incubation with the following primary antibodies: rabbit polyclonal anti-acetylated Histone 3 (acetyl K9) (Cell Signalling Technology), rabbit polyclonal anti-total Histone 3 (Millipore), in the corresponding buffer. All the antibodies were used at 1:1000 dilution except the mouse monoclonal anti-β-actin which was used at 1:50.000. Following two washes in TBS/Tween20 and one wash in TBS alone, immunolabeled protein bands were detected by using HRP-conjugated anti-rabbit or anti-mouse antibody (Santa Cruz Biotechnology; dilution 1:5.000) following an enhanced chemiluminescence system (ECL, GE Healthcare Bioscience, Buckinghamshire, UK), and autoradiographic exposure to HyperfilmtECL (GE Healthcare Bioscience). Quantity One™ software v.4.6.3 (Bio-Rad) was used for quantification.

`CCCc1nn(C)c2c(=O)[nH]c(-c3cc(S(=O)(=O)N4CCN(c5ncc(C(=O)Nc6ccccc6N)cn5)CC4)ccc3OCC)nc12` [Example 1-01, N-(2-aminophenyl)-2-[4-[4-ethoxy-3-(1-methyl-7-oxo-3-propyl-6H-pyrazolo[4,3-d]pyrimidin-5-yl)phenyl]sulfonylpiperazin-1-yl]pyrimidine-5-carboxamide] was tested, and the IC50 (PDE5A1) was 0.01 to 1 µM and the “AcH3: increment in Histone 3 acetylation level vs basal” value (“AcH3: increment … vs basal” for short) ([1]; compound concentration 1 μM) was “+++ (basal x2≤(+++)<basal x3)”.
For `CCCc1nc(C)c2c(=O)[nH]c(-c3cc(CC4CC(C(=O)Nc5ccccc5N)C4)ccc3OCC)nn12` (racemic) [Example 2-04, N-(2-aminophenyl)-3-[[4-ethoxy-3-(5-methyl-4-oxo-7-propyl-3H-imidazo[5,1-f][1,2,4]triazin-2-yl)phenyl]methyl]cyclobutanecarboxamide], the IC50 (PDE5A1) was under 0.01 µM and the “AcH3: increment … vs basal” value ([1]; compound concentration 1 μM) was “++++ (basal x3≤(++++))”.
With `CCCc1nn(C)c2c(=O)[nH]c(-c3cc(S(=O)(=O)N4CCN(C)CC4)ccc3OCC)nc12` [Sildenafil, reference compound] the “AcH3: increment … vs basal” value ([1]; compound concentration 1 μM) was “N.E”.
For `CCCc1nn(C)c2c(=O)[nH]c(-c3cc(Cc4ccc(C(=O)Nc5cc(-c6cccs6)ccc5N)cc4)ccc3OCC)nc12` [Example 1-13, N-[2-amino-5-(2-thienyl)phenyl]-4-[[4-ethoxy-3-(1-methyl-7-oxo-3-propyl-6H-pyrazolo[4,3-d]pyrimidin-5-yl)phenyl]methyl]benzamide], the IC50 (PDE5A1) was 1 to 10 µM and the “AcH3: increment … vs basal” value ([1]; compound concentration 1 μM) was “++ (basal x1.4≤(++)<basal x2)”.
With `CCCc1nc(C)c2c(=O)[nH]c(-c3cc(S(=O)(=O)N4CCN(c5ncc(C(=O)Nc6ccccc6N)cn5)CC4)ccc3OCC)nn12` [Example 2-02, N-(2-aminophenyl)-2-[4-[4-ethoxy-3-(5-methyl-4-oxo-7-propyl-3H-imidazo[5,1-f][1,2,4]triazin-2-yl)phenyl]sulfonylpiperazin-1-yl]pyrimidine-5-carboxamide] the IC50 (PDE5A1) was under 0.01 µM and the “AcH3: increment … vs basal” value ([1]; compound concentration 1 μM) was “++++ (basal x3≤(++++))”.
For `CCCc1nn(C)c2c(=O)[nH]c(-c3cc(C4CCC(C(=O)Nc5ccccc5N)CC4)ccc3OCC)nc12` (stereo not drawn) [Example 1-06, N-(2-aminophenyl)-4-[4-ethoxy-3-(1-methyl-7-oxo-3-propyl-6H-pyrazolo[4,3-d]pyrimidin-5-yl)phenyl]cyclohexanecarboxamide], the IC50 (PDE5A1) was 0.01 to 1 µM and the “AcH3: increment … vs basal” value ([1]; compound concentration 1 μM) was “+++ (basal x2≤(+++)<basal x3)”.
With `CCCc1nc(C)c2c(=O)[nH]c(-c3cc(S(=O)(=O)NC4CCN(c5ncc(C(=O)Nc6ccccc6N)cn5)CC4)ccc3OCC)nn12` [Example 2-03] the IC50 (PDE5A1) was under 0.01 µM and the “AcH3: increment … vs basal” value ([1]; compound concentration 1 μM) was “++ (basal x1.4≤(++)<basal x2)”.
In the case of `Nc1ccccc1NC(=O)c1cnc(N2CCC(CN3CC(=O)N4C(Cc5c([nH]c6ccccc56)C4c4ccc5c(c4)OCO5)C3=O)CC2)nc1` (racemic) [Example 4-01, N-(2-aminophenyl)-2-(4-((6-(benzo[d][1,3]dioxol-5-yl)-1,4-dioxo-3,4,6,7,12,12a-hexahydropyrazino[1′,2′:1,6]pyrido[3,4-b]indol-2(1H)-yl)methyl)piperidin-1-yl)pyrimidine-5-carboxamide], the IC50 (PDE5A1) is reported as 1 to 10 µM and the “AcH3: increment … vs basal” value ([1]; compound concentration 5 μM) is reported as “++ (basal x1.4≤(++)<basal x2)”.
With `CCCc1nn(C)c2c(=O)[nH]c(-c3cc(S(=O)(=O)NCc4ccc(C(=O)Nc5ccccc5N)cc4)ccc3OCC)nc12` [Example 1-03] the IC50 (PDE5A1) was 0.01 to 1 µM and the “AcH3: increment … vs basal” value ([1]; compound concentration 1 μM) was “++++ (basal x3≤(++++))”.
In the case of `CCCc1nn(C)c2c(=O)[nH]c(-c3cc(Cc4ccc(C(=O)Nc5cscc5N)cc4)ccc3OCC)nc12` [Example 1-20], the IC50 (PDE5A1) is reported as 1 to 10 µM and the “AcH3: increment … vs basal” value ([1]; compound concentration 1 μM) is reported as “++ (basal x1.4≤(++)<basal x2)”.
`CCCc1nn(C)c2c(=O)[nH]c(-c3cc(CC(=O)Nc4ccccn4)ccc3OCC)nc12` [Example 1-15, 2-[4-ethoxy-3-(1-methyl-7-oxo-3-propyl-6H-pyrazolo[4,3-d]pyrimidin-5-yl)phenyl]-N-(2-pyridyl)acetamide] was tested, and the IC50 (PDE5A1) was 0.01 to 1 µM and the “AcH3: increment … vs basal” value ([1]; compound concentration 1 μM) was “++ (basal x1.4≤(++)<basal x2)”.
